According to patent US11939398B2, “Modified peptides for use in treating neurodegenerative disorders” (Neuro-Bio Ltd, priority 2016, dated 2024):
Where a SMILES comes first, the peptide text is derived from it.

Columns and labels:
α7 nicotinic-receptor = α7 nicotinic-receptor (Homo sapiens, UniProt P36544); conditions: cited from earlier work
[1] = stability / degradation in rat blood; assay type: in vitro ADME; conditions: rat blood diluted with PBS
Experimental: (§1) Test compounds were spiked at 10 μg/ml into either PBS or blood (Male Wistar rat or Human) diluted with PBS, and a series of samples taken according to the following scheme:
(§2) Procaine, a compound known to be unstable in blood, was included as a positive control (ran with 5-fold diluted blood only). The sampling procedure was to add an aliquot to ice-cold acetonitrile, centrifuge, and store the supernatant on dry ice until analysis. Analysis by UHPLC-TOF mass spectrometry using electrospray ionisation was performed on the same day as the incubations were performed.

PC12 cells [2] = experiment: AChE activity assay (Ellman reagent) in PC12 cells treated with T30; assay type: cell-based; conditions: combined with T30 (1 μM)
Experimental: AChE activity was measured using the Ellman reagent that measures the presence of thiol groups as a result of AChE activity. In the case of the G4 experiment, AChE (G4) activity was tested alone and also together with either NBP14 or Tri peptides. PC12 cells were plated the day before the experiment as for the cell viability assay. Cells were treated with T30 (1 μM) alone or combined with NBP14 or Tri peptide (0.5 μM). After treatment, supernatant (perfusate) of each treatment was collected and 25 μL from each condition were added to a new flat bottomed 96 well plate followed by the addition of 175 μl of Ellman reagent (Solution A: KH2PO4 139 mM and K2HPO4 79.66 mM, pH 7.0; solution B (substrate): Acetylthiocholine Iodide 11.5 mM; Solution C (Reagent): 5,5′-dithiobis(2-nitrobenzoic acid) 8 mM and NaHCO3 15 mM). The Ellman reagent was prepared as a mixture of the 3 solutions in a ratio 33(A):3(B):4(C). Absorbance measurements were taken for an interval of 60 minutes across experiments at 405 nm in a Vmax plate reader (Molecular devices, Wokingham, UK).
In each of the different cell techniques, the statistics analysis was performed with the average of the percentage values of 3 or more experiments. […]

[3] = tested on: rat basal forebrain slices; experiment: voltage-sensitive dye imaging (VSDI) on brain slices, Example 5; assay type: cell-based
Experimental: Male Wistar rats (14 days old) were anaesthetised using isoflurane (˜15 ml, 100% w/w). Isoflurane was applied to the cotton bed at the bottom of an anaesthetic chamber (glass box 20×15×15 cm) where rats were then placed for approximately 45 s until complete anaesthesia was reached. The hind paw of each anaesthetised rat was pinched to check for the appropriate depth of anaesthesia. Upon confirmation of anaesthesia, rats were quickly decapitated, with the brain being quickly removed and immersed in ice cold oxygenated ‘slicing’ artificial cerebrospinal fluid (aCSF in mmol: 120 NaCl, 5 KCL, 20 NaHCO3, 2.4 CaCl2 2 MgSO4, 1.2 KH2PO4, 10 glucose, 6.7 HEPES salt and 3.3 HEPES acid; pH=7.1). Coronal slices (400 μm thick) were then taken from a block of brain containing the basal forebrain, namely the MS-dBB complex (between +9.20 and +9.48 mm Interaural and +0.48 and +0.2 mm Bregma, FIG. 4A) and the somatosensory barrel field cortex (SiBF, between +8.08 and +7.20 mm Interaural and −0.92 mm and −1.80 mm Bregma) (Paxinos and Watson, 1998) using a Vibratome (Leica VTi000S).
Slices were then transferred to a bubbler pot containing oxygenated aCSF at room temperature (recording aCSF in mmol: 124 NaCl, 5 KCL, 20 NaHCO3, 2.4 CaCl2 2 MgSO4, 1.3 KH2PO4, 10 glucose; pH=7.4) which was identical to that used in VSDI (voltage sensitive dye imaging) recording. Slices were then left for approximately 1-1.5 hours before preparing them for VSD staining.
Slices were placed in a dark, high humidity chamber filled with aCSF bubbled with 95% O2, 5% CO2. Once there, the dye solution (4% 0.2 mM styryl dye pyridinium 4-[2-[6-(dibutylamino)-2-napthalenyl]-ethenyl]-1-(3-sulfopropyl)hydroxide (Di-4-NEPPS), Invitrogen, Paisley, UK in 48% aCSF, 48% foetal bovine serum, 3.5% DMSO and 0.4% cremophore EL) (Tominaga et al., 2000) was applied to the slices for 20-25 minutes before being transferred back to a bubbler pot containing oxygenated aCSF kept at room temperature for 30 minutes.
When starting the VSDI recordings, slices were placed in the recording bath on a small piece of filter paper to allow the flow of oxygenated aCSF on the underside of the slice and in order to keep it alive. The slice was then weighed down by a home-made plastic grid that was placed on top of the slice. […] For the acquisition of VSD data, 2 dimensional images, equivalent to 88×60 pixels, were recorded using the MiCamo2 High Resolution camera (Brain Vision, Japan) with BV_Analyze imaging software. […] Light was generated using an Osram halogen xenophot 64634 HLX EFR Display/Optic lamp and was filtered to emit green (530±10 nm) light using a MHF-G150LR (Moritex Corporation) coupled to the MiCamo2 High resolution imaging system and filtered the emitted fluorescence through a >590 nm high pass filter. […]

PC12 cells [4] = experiment: Calcium fluorometry (Fluo-8, PNU282987-induced calcium increase) in PC12 cells; assay type: cell-based; conditions: in conjunction with T30, PC12 cells
Experimental: PC12 cells were plated in 200 μl of Dulbecco's Modified Eagle's medium (DMEM) plus 2 mM of L-glutamine medium the day before the experiment in 96 well plates. On the day of the experiment, the Fluo-8 solution (Abcam) was prepared as described by the provider by adding 20 μl of Fluo-8 in the assay buffer that contains 9 ml of Hank's Balanced Salt Solution (HBSS) and 1 ml of pluronic F127 Plus. Subsequently, 100 μl of growth medium was removed and 100 μl of Fluo-8 solution were added. Treatments with T30 in conjunction with NBP14 or Tri peptides were added and incubated for 30 minutes in the incubator and 30 minutes room temperature. After 1 h, the plate was placed in the fluorescence plate reader (Fluostar, Optima, BMG Labtech, Ortenberg, Germany). Before reading the fluorescence, PNU282987 1 μM, an alpha7 specific agonist of the nicotinic receptors, was prepared and placed in the Fluostar injector. For each well, the reading was formed by a basal fluorescence reading followed by PNU282987 injection that induced an increase of calcium via nicotinic receptors.
In each of the different cell techniques, the statistics analysis was performed with the average of the percentage values of 3 or more experiments. Comparisons between multiple treatment groups and the same control were performed by one-way analysis of variance (ANOVA) and Tukey's post-hoc tests using GraphPAD Instat (GraphPAD software, San Diego, California). Statistical significance was taken at a p value<0.05.

[5] = stability / degradation in human blood; assay type: in vitro ADME; conditions: human blood diluted with PBS
Experimental: as §1, §2

α7 nicotinic-receptor, sequence (P36544 23-502): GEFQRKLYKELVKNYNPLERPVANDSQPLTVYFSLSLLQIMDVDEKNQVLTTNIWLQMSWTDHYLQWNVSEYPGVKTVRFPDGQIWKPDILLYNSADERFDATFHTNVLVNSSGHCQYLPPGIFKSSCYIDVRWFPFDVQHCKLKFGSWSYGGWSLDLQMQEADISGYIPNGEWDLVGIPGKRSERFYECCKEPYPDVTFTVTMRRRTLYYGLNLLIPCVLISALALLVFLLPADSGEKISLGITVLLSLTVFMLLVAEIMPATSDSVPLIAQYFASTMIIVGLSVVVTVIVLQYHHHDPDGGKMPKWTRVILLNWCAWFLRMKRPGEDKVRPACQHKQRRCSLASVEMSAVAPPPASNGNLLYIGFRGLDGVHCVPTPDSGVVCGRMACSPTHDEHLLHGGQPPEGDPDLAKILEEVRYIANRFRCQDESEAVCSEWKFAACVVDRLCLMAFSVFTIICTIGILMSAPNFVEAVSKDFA

SMILES | affinity for the α7 nicotinic-receptor (α7 nicotinic-receptor) [µM] | stability in blood ([1]; 10 μg/ml, up to 60 min) | degradants detected ([1]; UHPLC-TOF MS) | protection against T30-induced AChE activity (PC12 cells [2]) | blocking of T30-induced deviations from baseline (VSDI) ([3]; 4 μM co-perfused with T30 (2 uM)) | change in magnitude (summed fluorescence) of evoked responses, compound alone ([3]; 4 μM in perfusate, no T30) | protection against T30-induced calcium influx (PC12 cells [4]) | stability in blood ([5]; 10 μg/ml, up to 60 min) | degradants detected ([5]; UHPLC-TOF MS)
COc1ccc2c3c1O[C@H]1C[C@@H](O)C=C[C@@]31CCN(C)C2 [galanthamine] | 10 |  |  |  |  |  |  |  | 
CSCC[C@@H]1NC(=O)[C@H](Cc2ccc(O)cc2)NC(=O)[C@H](CO)NC(=O)[C@H](CO)NC(=O)[C@H](Cc2c[nH]c3ccccc23)NC(=O)[C@H](CCCNC(=N)N)NC(=O)[C@H](Cc2c[nH]cn2)NC(=O)[C@H](Cc2ccccc2)NC(=O)[C@H](CCC(=O)O)NC(=O)[C@H](C)NC(=O)[C@H](CCCCN)NC(=O)[C@H](Cc2c[nH]c3ccccc23)NC(=O)[C@H](Cc2c[nH]cn2)NC(=O)[C@H](C(C)C)NC1=O [NBP14, reference compound] (cyclo(AEFHRWSSYMVHWK)) |  | good stability | no degradants were detected | protects against these toxic effects | totally block the T30-induced effects | small, non-significant alterations | protects against these toxic effects | good stability | no degradants were detected
